Calls of active or inactive are those of the source. The rule behind the calls is not given here.
Tested on: rodent carcinogenicity bioassays, tumor incidence
Experiment: CCRIS carcinogenicity studies
How it was run: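 NCI-built, expert-reviewed records of carcinogenicity and related test outcomes (mutagenicity, tumor promotion/inhibition) compiled from published and report sources, historical span 1985-2011, not updated.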

Q: Which carcinogen call (Species: MOUSE, Strain/Sex: SWISS/FEMALE, Route: INTRAPERITONEAL, Dose: 0, 100 NMOL (TOTAL DOSE) 1/7, 2/7 AND 4/7 ADMINISTERED ON DAYS 1, 8 AND 15 OF LIFE RESPECTIVELY (STUDY DURATION: 32 WK), Tumor Site: Type of Lesion: LUNG: TUMOR) does the source give for `O=[N+]([O-])c1cc2c3c(ccc2c2ccccc12)[C@H](O)[C@@H](O)C=C3` here?
A: The carcinogen call was “active; positive”.

Q: What about the carcinogen call (Species: MOUSE, Strain/Sex: SWISS/MALE, Route: INTRAPERITONEAL, Dose: 0, 100 NMOL (TOTAL DOSE) 1/7, 2/7 AND 4/7 ADMINISTERED ON DAYS 1, 8 AND 15 OF LIFE RESPECTIVELY (STUDY DURATION: 32 WK), Tumor Site: Type of Lesion: LUNG: TUMOR, LIVER: TUMOR) of the same compound?
A: Its carcinogen call is “active; positive”.

Q: How did the carcinogen call (Species: Mouse, Strain/Sex: SKH-1/Female (18/Group), Route: Dermal, Dose: 0, 2, 4% administered as topical cream (pH 4) , 5 d/wk, 40 wk, animals held an additional 12 wk for study duration of 1, Tumor Site: Type of Lesion: Skin: Carcinoma in situ, squamous cell carcinoma, basal cell carcinoma) turn out when `O=C(O)c1ccccc1O` was run?
A: Its carcinogen call is “inactive; negative. when synthetic solar light (ssl) at 0.3 and 0.6 the minimal erythema d”.

Q: And the carcinogen call (Species: Mouse, Strain/Sex: SKH-1/Male (18/Group), Route: Dermal, Dose: 0, 2, 4% administered as topical cream (pH 4) , 5 d/wk, 40 wk, animals held an additional 12 wk for study duration of 1, Tumor Site: Type of Lesion: Skin: Carcinoma in situ, squamous cell carcinoma, basal cell carcinoma)?
A: The carcinogen call was “inactive; negative. when synthetic solar light (ssl) at 0.3 and 0.6 the minimal erythema d”.

Q: What does the source list for `CC(=O)CC(C)C`?
A: carcinogen call (Species: Mouse, Strain/Sex: B6C3F1/N/Female, Route: Inhalation, Dose: 0, 450, 900, 1800 ppm 6 hr and 12 min/day, 5 d/wk for 105 wks, Dose: 0, 450, 900, 1800 ppm 6 hr and 12 min/day, 5 d/wk for 105 wks, Tumor Site: Type of Lesion: Liver: Hepatocellular adenoma (13/50, 15/50, 20/50, 23/50), Hepatocellular carcinoma (6/50, 5/50, 6/50, 11/50), Hepatoce, Tumor Site: Type of Lesion: Liver: Hepatocellular adenoma (13/50, 15/50, 20/50, 23/50), Hepatocellular carcinoma (6/50, 5/50, 6/50, 11/50), Hepatoce): equivocal; carcinogen call (Species: Mouse, Strain/Sex: B6C3F1/N/Male, Route: Inhalation, Dose: 0, 450, 900, 1800 ppm 6 hr and 12 min/day, 5 d/wk for 105 wks, Dose: 0, 450, 900, 1800 ppm 6 hr and 12 min/day, 5 d/wk for 105 wks, Tumor Site: Type of Lesion: Liver: Hepatocellular adenoma (17/50, 25/50, 23/50, 34/50), Hepatocellular carcinoma (12/50, 12/50, 10/50, 9/50), Hepato, Tumor Site: Type of Lesion: Liver: Hepatocellular adenoma (17/50, 25/50, 23/50, 34/50), Hepatocellular carcinoma (12/50, 12/50, 10/50, 9/50), Hepato): active; positive (ntp describes as some evidence); carcinogen call (Species: Rat, Strain/Sex: F344/N/Female, Route: Inhalation, Dose: 0, 450, 900, 1800 ppm 6 hr and 12 min/d, 5 d/wk for 104 wks, Dose: 0, 450, 900, 1800 ppm 6 hr and 12 min/d, 5 d/wk for 104 wks, Tumor Site: Type of Lesion: Mesenchymal tumor malignant: (0/50, 0/50, 0/50, 2/50)): equivocal; carcinogen call (Species: Rat, Strain/Sex: F344/N/Male, Route: Inhalation, Dose: 0, 450, 900, 1800 ppm 6 hr and 12 min/d, 5 d/wk for 104 wks, Dose: 0, 450, 900, 1800 ppm 6 hr and 12 min/d, 5 d/wk for 104 wks, Tumor Site: Type of Lesion: Kidney: Renal tubule adenoma (2/50, 3/50, 3/50, 10/50), Renal tubule carcinoma (0/50, 1/50, 0/50, 2/50), Renal tubule ad, Tumor Site: Type of Lesion: Kidney: Renal tubule adenoma (2/50, 3/50, 3/50, 10/50), Renal tubule carcinoma (0/50, 1/50, 0/50, 2/50), Renal tubule ad): active; positive (ntp describes as some evidence)

Q: For `[Ni+2].[OH-].[OH-]`, which carcinogen call (Species: RAT, Strain/Sex: WISTAR, Route: INTRAMUSCULAR IMPLANT, Tumor Site: Type of Lesion: IMPLANT SITE) is on record?
A: Its carcinogen call is “active; positive”.

Q: Which carcinogen call (Species: MOUSE, Strain/Sex: B6C3F1/FEMALE, Route: ORAL, Dose: 0, 2500, 5000 PPM IN DIET, Dose: 0, 2500, 5000 PPM IN DIET, Tumor Site: Type of Lesion: LIVER: HEPATOCELLULAR ADENOMA) does the source give for `CC(=O)Nc1ccc(N=Nc2cc(C)ccc2O)cc1` here?
A: Its carcinogen call is “active; positive”.

Q: And the carcinogen call (Species: MOUSE, Strain/Sex: B6C3F1/MALE, Route: ORAL, Dose: 0, 2500, 5000 PPM IN DIET, Dose: 0, 2500, 5000 PPM IN DIET)?
A: The carcinogen call was “inactive; negative”.

Q: And the carcinogen call (Species: RAT, Strain/Sex: F344/FEMALE, Route: ORAL, Dose: 0, 5000, 10000 PPM IN DIET, Dose: 0, 5000, 10000 PPM IN DIET)?
A: The carcinogen call was “inactive; negative”.

Q: What about the carcinogen call (Species: RAT, Strain/Sex: F344/MALE, Route: ORAL, Dose: 0, 5000, 10000 PPM IN DIET, Dose: 0, 5000, 10000 PPM IN DIET, Tumor Site: Type of Lesion: LIVER: NEOPLASTIC NODULE) of the same compound?
A: The carcinogen call was “active; positive”.

Q: Which carcinogen call (Species: Mouse, Strain/Sex: B6C3F1/Female (50/Group), Route: Oral, Dose: 0, 6, 22, 93 mg/kg in diet for 78 wk, study duration 78 wk, Dose: 0, 6, 22, 93 mg/kg in diet for 78 wk, study duration 78 wk) does the source give for `CN1CSC(=S)N(C)C1` here?
A: Its carcinogen call is “inactive; negative”.

Q: And the carcinogen call (Species: Mouse, Strain/Sex: B6C3F1/Male (50/Group), Route: Oral, Dose: 0, 4, 16, 68 mg/kg in diet for 78 wk, study duration 78 wk, Dose: 0, 4, 16, 68 mg/kg in diet for 78 wk, study duration 78 wk)?
A: Its carcinogen call is “inactive; negative”.

Q: And the carcinogen call (Species: Rat, Strain/Sex: Wistar/Female (50/Group), Route: Oral, Dose: 0, 0.35, 1.37, 5.66 mg/kg in diet for 2 yr, study duration 2 yr)?
A: The carcinogen call was “inactive; negative”.

Q: And the carcinogen call (Species: Rat, Strain/Sex: Wistar/Male (50/Group), Route: Oral, Dose: 0, 0.27, 1.08, 4.43 mg/kg in diet for 2 yr, study duration 2 yr)?
A: The carcinogen call was “inactive; negative”.

Q: How did the carcinogen call (Species: MOUSE, Route: ORAL, Tumor Site: Type of Lesion: THYROID GLAND) turn out when `CC(C)NCC(O)c1ccc2ccccc2c1` (stereo not drawn) was run?
A: The carcinogen call was “active; positive”.

Q: For `CC(C)CN(N=O)C(N)=O`, which carcinogen call (Species: RAT, Strain/Sex: DONRYU/FEMALE, Route: ORAL, Dose: 100, 200, 400 PPM IN DRINKING WATER, Dose: 100, 200, 400 PPM IN DRINKING WATER, Tumor Site: Type of Lesion: DUODENUM: BENIGN HEMANGIOENDOTHELIOMA, MALIGNANT HEMANGIOENDOTHELIOMA) is on record?
A: The carcinogen call was “active; positive”.

Q: With `Cc1cc(N)ccc1N` as the compound, how does the carcinogen call (Species: MOUSE, Strain/Sex: B6C3F1/FEMALE, Route: ORAL, Dose: 0, 0.06, 0.1% OF DIET, TWA, Dose: 0, 0.06, 0.1% OF DIET, TWA) read?
A: Its carcinogen call is “inactive; negative”.

Q: And the carcinogen call (Species: MOUSE, Strain/Sex: B6C3F1/MALE, Route: ORAL, Dose: 0, 0.06, 0.1% OF DIET, TWA, Dose: 0, 0.06, 0.1% OF DIET, TWA)?
A: Its carcinogen call is “inactive; negative”.

Q: And the carcinogen call (Species: RAT, Strain/Sex: F344/FEMALE, Route: ORAL, Dose: 0, 0.06, 0.2% OF DIET, TWA, Dose: 0, 0.06, 0.2% OF DIET, TWA)?
A: Its carcinogen call is “inactive; negative”.

Q: What about the carcinogen call (Species: RAT, Strain/Sex: F344/MALE, Route: ORAL, Dose: 0, 0.06, 0.2% OF DIET, TWA, Dose: 0, 0.06, 0.2% OF DIET, TWA) of the same compound?
A: The carcinogen call was “inactive; negative”.
